Tests used:
[1] = Pharmacokinetics of oral calcitonin (10.5 mg) in humans; type: in vivo, human; conditions: 10 milligrams of salmon calcitonin alone administered to humans
Experimental: The capsules were coated for 20 min with hydroxypropylmethylcellulose phthalate 50 in a pan coater and stored at 4° C. Fasted subjects were given 1 capsule followed by a glass of orange juice in the morning of the study. Samples of blood were taken 15 minutes before taking the capsules and at the indicated times after taking the calcitonin capsule. The concentration of calcitonin in blood was determined by competitive radioimmunoassay.

[2] = Blood levels of salmon calcitonin after direct injection of active components into duodenum, ilium or colon; type: in vivo; conditions: active components injected directly into the duodenum
Excerpt: The acid is believed to lower the local intestinal pH (where the active agent has been released) to levels below the optimal range for many intestinal proteases. This decrease in pH reduces the proteolytic activity of the intestinal proteases, thus affording protection to the peptide from potential degradation. The activity of these proteases is diminished by the temporarily acidic environment provided by the invention. It is preferred that sufficient acid be provided that local intestinal pH is lowered temporarily to 5.5 or below, preferably 4.7 or below and more preferably 3.5 or below. The sodium bicarbonate test described below (in the section captioned "the pH-Lowering Agent") is indicative of the required acid amount. […] The absorption enhancers of the invention synergistically promote peptide absorption into the blood while conditions of reduced proteolytic activity prevail.

[3] = Applicant's internal comparative tests of oral formulation, sCT versus PTH; type: in vivo; conditions: oral formulation of the invention
[4] = cited from earlier work

serum levels of salmon calcitonin [1]: no detectable serum levels | Tmax for blood levels of salmon calcitonin [2]: 5 to 15 min
SMILES: CC(C)C[C@H](NC(=O)[C@H](CCCCN)NC(=O)CNC(=O)[C@H](CC(C)C)NC(=O)[C@@H](NC(=O)[C@@H]1CSSC[C@H](N)C(=O)N[C@@H](CO)C(=O)N[C@@H](CC(N)=O)C(=O)N[C@@H](CC(C)C)C(=O)N[C@@H](CO)C(=O)N[C@@H]([C@@H](C)O)C(=O)N1)C(C)C)C(=O)N[C@@H](CO)C(=O)N[C@@H](CCC(N)=O)C(=O)N[C@@H](CCC(=O)O)C(=O)N[C@@H](CC(C)C)C(=O)N[C@@H](Cc1c[nH]cn1)C(=O)N[C@@H](CCCCN)C(=O)N[C@@H](CC(C)C)C(=O)N[C@@H](CCC(N)=O)C(=O)N[C@H](C(=O)N[C@@H](Cc1ccc(O)cc1)C(=O)N1CCC[C@H]1C(=O)N[C@@H](CCCNC(=N)N)C(=O)N[C@H](C(=O)N[C@@H](CC(N)=O)C(=O)N[C@H](C(=O)NCC(=O)N[C@@H](CO)C(=O)NCC(=O)N[C@H](C(=O)N1CCC[C@H]1C(N)=O)[C@@H](C)O)[C@@H](C)O)[C@@H](C)O)[C@@H](C)O [Salmon calcitonin]
bioavailability compared with parathyroid hormone [3]: significantly exceeds that of parathyroid hormone | peak levels at which some patients report gastrointestinal distress ([4]; in vivo): ≥ 200 picograms per milliliter | detectable blood levels after injection ([4]; injection at conventional dosages): no detectable blood levels more than two hours after injection | peak levels at which effective against osteoporosis ([4]; nasal, 200 International units): ≥ 10 picograms per milliliter | half-life ([4]; subcutaneous administration in man): 20 to 40 min | peak serum concentration ([4]; subcutaneous, 100 International units): about 250 picograms per milliliter
